Entries after “also recorded” stand apart in the source; their conditions may differ. Like-named read-outs stand apart in the source and are kept apart here.
What was measured:
[1] = Form conversion and degradation under thermal stress
Experimental: Studies were also conducted to evaluate the likelihood for conversion and degradation under thermal stress.

[2] = Slurry studies of solid form inter-conversion; type: physicochemical; conditions: for propensity of inter-conversion of the solid form in slurry: room temperature, absence of light, up to 14 days, solvents per substance (water, IPA, CH2Cl2, toluene, n-heptane, EtOAc, MeCN, THF, t-AmOH); for Slurries: diazoxide potassium salt, room-temperature slurry
healthy volunteers [3] = test system: healthy volunteers
Experimental: (§1) A randomized double-blind, placebo-controlled clinical trial was conducted in 24 healthy volunteers. They were randomized in a 2:1 ratio of treated to placebo. […] The dose was administered once per day in the morning for a period of 7 days. A number of lipid parameters were measured at baseline and again on day 7 including fasting triglycerides, total cholesterol, LDL cholesterol, HDL cholesterol, and non-HDL cholesterol. Additionally, blood pressure was measured on a daily basis.

healthy volunteers [4] = test system: healthy volunteers; remark: listed apart in the source
Experimental: as §1
In PK008, the dose was administered as one and one ½ tablet formulation K′.

[5] = test system: hypertriglyceridemic patients; experiment: Clinical study in 12 hypertriglyceridemic patients (formulation U / K′ crossover): lipids; type: in vivo, human; conditions: 435 mg/day diazoxide choline once per day, 15 days
Experimental: A clinical study was conducted in 12 hypertriglyceridemic patients. […] Treatment continued for 16 days. The endpoint of the study was percentage change from baseline to day 15 of triglycerides, total cholesterol, LDL cholesterol, HDL cholesterol and non-HDL cholesterol. Lipid parameters were measured at baseline and on days 7 and 15. Blood pressure was collected at multiple time points.

[6] = Excipient compatibility study for diazoxide choline salt; type: physicochemical
[7] = Moisture sorption analysis; type: physicochemical; conditions: 25° C.
Experimental: Moisture Sorption Analysis was performed with a Hiden IGAsorp Moisture Sorption Instrument. […] The samples were allowed to equilibrate to an asymptotic weight at each point for a maximum of 4 hours. […] The resulting samples after desorption were dried at 80° C. for two hours and analyzed by XRPD.

[8] = test system: Zucker Diabetic Fatty (ZDF) rats; conditions: 150 mg/kg/day, 8 weeks; cited from earlier work
Zucker rats = conditions: oral 1-10 mg/kg/day for 14 days; cited from earlier work
[9] = Study EC004, 435 mg, 7 days, Baseline
[10] = Study EC004, 435 mg, 7 days, End of treatment
[11] = Study TR002, 508 mg, 49 days, Baseline
[12] = Study TR002, 508 mg, 49 days, End of treatment
[13] = 60° C., closed environment, protected from light, 7 and 14 days, XRPD, DSC, HPLC

## CC1=Nc2ccc(Cl)cc2S(=O)(=O)[N-]1.C[N+](C)(C)CCO [Choline diazoxide salt]
[1]
  conversion and degradation under thermal stress: did not show any significant degradation
[2]; listed as choline salt
  propensity of inter-conversion of the solid form in slurry: no propensity of inter-conversion
Healthy volunteers [3]; 300 mg diazoxide/day, Baseline
  HDL cholesterol, mean ± SEM: 49 ± 3.3 mg/dL
  LDL cholesterol, mean ± SEM: 111 ± 5.8 mg/dL
  Total cholesterol, mean ± SEM: 175 ± 7.5 mg/dL
  Triglycerides, mean ± SEM: 76 ± 7.8 mg/dL
  non-HDL cholesterol, mean ± SEM: 126 ± 6.6 mg/dL
Healthy volunteers [3]; 300 mg diazoxide/day, Day 7
  HDL cholesterol, Percent change from baseline: 8.2%
  HDL cholesterol, mean ± SEM: 53 ± 2.9 mg/dL
  LDL cholesterol, Percent change from baseline: −5.4%
  LDL cholesterol, mean ± SEM: 105 ± 4.9 mg/dL
  Total cholesterol, Percent change from baseline: −2.3%
  Total cholesterol, mean ± SEM: 171 ± 6.4 mg/dL
  Triglycerides, Percent change from baseline: −13.2%
  Triglycerides, mean ± SEM: 66 ± 3.9 mg/dL
  non-HDL cholesterol, Percent change from baseline: −6.3%
  non-HDL cholesterol, mean ± SEM: 118 ± 5.5 mg/dL
Healthy volunteers [3]; baseline to day 7, 300 mg/day diazoxide as formulation U
  reduction in total cholesterol, LDL cholesterol and non-HDL cholesterol vs placebo arm: greater for each lipid parameter than the corresponding reduction in the placebo arm
Healthy volunteers [4]; [9]
  Diastolic blood pressure: 69.4 mmHg
  Systolic blood pressure: 113.2 mmHg
Healthy volunteers [4]; [10]
  Diastolic blood pressure: 63.2 mmHg
  Systolic blood pressure: 113.5 mmHg
Healthy volunteers [4]; [11]
  Diastolic blood pressure: 77.7 mmHg
  Systolic blood pressure: 118.1 mmHg
Healthy volunteers [4]; [12]
  Diastolic blood pressure: 67.0 mmHg
  Systolic blood pressure: 117.0 mmHg
[5]
  lipid response: marked reductions in triglycerides, total cholesterol, LDL cholesterol, and nonHDL cholesterol and a marked increase in HDL cholesterol

## CC1=Nc2ccc(Cl)cc2S(=O)(=O)N1 [Diazoxide Control]
[6]; one-month storage 40° C./75% RH
  1 Month 40° C./75% RH % (w/w): 99.0 % (w/w)
[6]; one-month storage 50° C.
  1 Month 50° C. % (w/w): 99.4 % (w/w)

## CC1=Nc2ccc(Cl)cc2S(=O)(=O)[N-]1.C[N+](C)(C)CCO [Diazoxide choline salt Form A]
[7]
  Moisture sorption (hygroscopicity): hygroscopic solid
[7]; listed as Form A
  water absorbed at 60% RH: 2.4 wt %
[1]
  conversion and degradation under thermal stress: Started to convert to Form
[2]; listed as Form A
  propensity of inter-conversion of the solid form in slurry: conversion to Form B was observed after seven days; also recorded: readily converted to Form B in all slurry solvents utilized; also recorded: Converted to Form B after

## CC1=Nc2ccc(Cl)cc2S(=O)(=O)[N-]1.C[N+](C)(C)CCO [Diazoxide choline salt Form B]
[7]; listed as Form B
  water absorbed at 60% RH: 7.4 wt %
[1]
  conversion and degradation under thermal stress: Stable after 14 days at
[2]; listed as Form B
  propensity of inter-conversion of the solid form in slurry: form conversion was not observed; also recorded: Stable after 14 days in

## CC1=NS(=O)(=O)c2cc(Cl)ccc2[N-]1.CC1=NS(=O)(=O)c2cc(Cl)ccc2[N-]1.O.[K+].[K+] [Diazoxide potassium salt Form D]
[2]
  Slurries: Converted to Form D

## C1COCCO1.CC1=NS(=O)(=O)c2cc(Cl)ccc2[N-]1.CC1=NS(=O)(=O)c2cc(Cl)ccc2[N-]1.[K+].[K+] [Diazoxide potassium salt Form F]
[7]
  Moisture sorption (hygroscopicity): hygroscopic solid
[1]; diazoxide potassium salt, thermal stress, 7 days
  Thermal: Stable (7 days)
[2]
  Slurries: Converted to Form D
  propensity of inter-conversion of the solid form in slurry: readily converted to Form D in all slurry solvents utilized; also recorded: conversion to Form D was observed in all solvents

## CC1=Nc2ccc(Cl)cc2S(=O)(=O)N1 [Diazoxide, 7-chloro-3-methyl-2H-1,2,4-benzothiadiazine 1,1 dioxide, reference compound]
[7]
  water absorbed at 60% RH: approximately 0.04 wt %
  water absorbed at 90% RH: ~0.20 wt %
[7]; listed as Free form
  Moisture sorption (hygroscopicity): no hysteresis
[1]; [13]
  conversion and degradation under thermal stress: no conversion or degradation
[2]
  propensity of inter-conversion of the solid form in slurry: did not convert to alternate crystal forms
[8]
  hepatic lipid contents: decreased hepatic triglycerides, long chain acyl-CoA and cholesterol contents

## N#CNC(=NCCc1ccccc1Cl)c1cncc(N)c1 [KRN4884]
Zucker rats
  serum triglyceride levels: dose dependently reduce serum triglyceride levels

## CC1=NS(=O)(=O)c2cc(Cl)ccc2[N-]1.[K+] [Potassium diazoxide salt]
[7]
  water absorbed at 60% RH: 5.4 wt %
  water absorbed at 90% RH: 38.3 wt %
[1]; [13]
  conversion and degradation under thermal stress: did not show any significant degradation
[2]
  propensity of inter-conversion of the solid form in slurry: no propensity of inter-conversion

## CC1=NS(=O)(=O)c2cc(Cl)ccc2[N-]1.[Na+] [Sodium diazoxide salt]
[7]
  water absorbed at 60% RH: 1.2 wt %
[7]; 80% RH
  water absorbed at 80% RH: 6.6 wt %
[1]; [13]
  conversion and degradation under thermal stress: little propensity to change form or degrade
[2]
  propensity of inter-conversion of the solid form in slurry: no propensity of inter-conversion

Reference: US9765043B2, “Salts of potassium ATP channel openers and uses thereof” (Essentialis, Inc., priority 2012, dated 2017)
